Measurements from patent US12329741B2, “HBV inhibitor and its use” (priority 2019, dated 2025).

Columns and labels:
[1] = Cytotoxicity test (Cell-titer Blue method) in HepG2.2.15 cells; type: cell-based; details: human, six days after treatment, highest concentration tested 100 μM, read-out: HepG2.2.15 cell viability CC50
Excerpt: (§1) In this experiment, real-time fluorescent quantitative PCR (qPCR) method was used to detect the content of HBV DNA in the supernatant of HepG2.2.15 cells to determine the anti-hepatitis B virus activity of the compound in HepG2.2.15 cells, and to detect cell viability impact of the test compound against HepG2.2.15 by Cell-titer Blue method. In the experiment, entecavir (ETV) was used as a reference compound to monitor the quality of the experiment.
The compound concentration, plate layout, and compound treatment process are consistent with the antiviral experiments. In six days after the cells were treated with the compound, the cell viability was measured with Cell-titer Blue.
Analyze the data and calculate relative cell viability: Use the following formula to calculate the percentage of cell viability: % Cell viability=(sample fluorescence reading-fluorescence reading of culture medium control)/(fluorescence reading of DMSO control-fluorescence reading of the culture medium control)×100.
Finally, GraphPad Prism software was used to calculate the CC50 value of the compound.

[2] = Pharmacokinetics (PK) experiment, intragastric administration in rats; type: in vivo, Male SD rats; details: for absorption after oral administration / blood exposure: oral administration; for AUC(0-inf) / Cmax / Tmax / half-life / AUC(0-t): male, SD, rat, po, intragastric administration 20 mg/kg, plasma; for AUC(0-t): read-out: AUC0-24
Experimental: Male SD rats weighing 215-343 grams were fasted overnight before the test. The test compound was completely dissolved in 5% of the total volume of DMSO and then diluted with 30% Captisol to 2 mg/mL, and then it was administered by gavage at dosage of 20 mg/kg. In 15 minutes, 30 minutes, 1, 2, 4, 6, 8 and 24 hours after the administration, blood was taken from the end of the tails of rats at about 0.3 ml at each time point. The blood sample was placed in a centrifuge tube containing K2-EDTA, and centrifuged (@3500 rpm, 10 minutes, 4° C.). Take the plasma and store it in an ultra-low temperature refrigerator at −80° C. 50 μL of plasma sample was mixed with 135 μl of acetonitrile (including the internal standard IS), and then vortexed for 30 s, centrifuged at 15000 rpm at 4° C. for 10 min, and 10 μl of supernatant was taken as sample and injected into LC-MS/MS for analysis.

[3] = system: hepatitis B virus (HBV); assay: Anti-hepatitis B virus activity: HBV DNA in supernatant of HepG2.2.15 cells by qPCR; type: cell-based; details: 192 h, supernatant collected on day 8
Excerpt: as §1
On day 1, the cells were planted into a 96-well plate, the compound was added to treat the cells on day 2, a new culture medium containing the compound was replaced on day 5, and the supernatant was collected on day 8 to extract DNA. Quantitative PCR was used to detect the content of HBV DNA. Both the test compound and the control compound were diluted in a series of 3 times with 8 concentration points, and 2 replicate wells were measured in parallel. The final concentration of DMSO in the culture medium is 0.5%.
The calculation formula of the inhibition percentage is as follows: % inh.=(1-HBV copy number of sample/HBV copy number of 0.5% DMSO control)×100
EC50 was analyzed by Graphpad Prism software (four parameter logistic equations).

Row | SMILES | CC50 at 6 days [1] [µM] | EC50 [3] [µM] | other results
1 | C#CCNC(=O)C(=O)c1cc(C(=O)Nc2ccc(F)c(Cl)c2)c(C)o1 [Compound 2, 2-Methyl-3-amide-N-(3-chloro-4-fluorophenyl)-5-(2-propargylamino-oxalyl)-furan] | 61 | 5 to 50 | absorption after oral administration [2]: well absorbed; blood exposure [2]: relatively high
2 | Cc1oc(C(=O)C(=O)NCc2nccn2C)cc1C(=O)Nc1ccc(F)c(Cl)c1 [Compound 8] | > 100 | 5 to 50 | absorption after oral administration [2]: well absorbed; blood exposure [2]: relatively high
3 | Cc1oc(C(=O)C(=O)NCc2cn(C3CC3)nn2)cc1C(=O)Nc1ccc(F)c(Cl)c1 [Compound 11, 2-Methyl-3-amide-N-(3-chloro-4-fluorophenyl)-5-(2-(1-cyclopropyl-1H-[1,2,3]triazole-4-ylmethylamino)-oxalyl)-furan] |  |  | absorption after oral administration [2]: well absorbed; blood exposure [2]: relatively high
4 | Cc1sc(C(=O)C(=O)NC(C)(C)C)c(C)c1C(=O)Nc1ccc(F)c(Cl)c1 [Compound 36, 2,4-Dimethyl-3-amide-N-(3-chloro-4-fluorophenyl)-5-(2-tert-butylamino-oxalyl)-thiophene] | > 100 | ≤ 0.05 | AUC(0-inf) [2]: 32600 ng·h/mL; Cmax [2]: 3730 ng/mL; Tmax [2]: 0.5 h; half-life [2]: 12.2 h; AUC(0-t) [2]: 25800 ng·h/mL; absorption after oral administration [2]: well absorbed; blood exposure [2]: relatively high
5 | CC(C)(C)NC(=O)C(=O)c1cc(C(=O)Nc2ccc(F)cc2)co1 [Compound 42, 3-Amide-N-(4-fluorophenyl)-5-(2-tert-butylamino-oxalyl)-furan] | > 100 | 5 to 50 | absorption after oral administration [2]: well absorbed; blood exposure [2]: relatively high
6 | Cc1c(C(=O)C(=O)NC(C)(C)C)c(C)n(C)c1C(=O)Nc1ccc2occc2c1 [Compound 52, 1,3,5-Trimethyl-2-amide-N-(benzofuran-5)-4-(2-tert-butylamino-oxalyl)-pyrrole] | > 100 | ≤ 0.05 | AUC(0-inf) [2]: 17100 ng·h/mL; Cmax [2]: 3670 ng/mL; Tmax [2]: 1 h; half-life [2]: 2.39 h; AUC(0-t) [2]: 17100 ng·h/mL
7 | C#CCNC(=O)C(=O)c1c(C)c(C(=O)Nc2ccc3occc3c2)n(C)c1C [Compound 53, 1,3,5-Trimethyl-2-amide-N-(benzofuran-5-yl)-4-(2-propargylamino-oxalyl)-pyrrole] | > 100 | ≤ 0.05 | AUC(0-inf) [2]: 26400 ng·h/mL; Cmax [2]: 3930 ng/mL; Tmax [2]: 1.58 h; half-life [2]: 2.48 h; AUC(0-t) [2]: 26300 ng·h/mL
8 | C#CC(C)(C)NC(=O)C(=O)c1c(C)c(C(=O)Nc2ccc3occc3c2)n(C)c1C [Compound 54, 1,3,5-Trimethyl-2-amide-N-(benzofuran-5-yl)-4-(2-(1,1-dimethylpropynamido)-oxalyl)-pyrrole] | > 100 | ≤ 0.05 | AUC(0-inf) [2]: 87400 ng·h/mL; Cmax [2]: 9430 ng/mL; Tmax [2]: 1.67 h; half-life [2]: 2.52 h; AUC(0-t) [2]: 87200 ng·h/mL
9 | CNC(=O)C1(NC(=O)C(=O)c2c(C)c(C(=O)Nc3ccc4occc4c3)n(C)c2C)CC(F)(F)C1 [Compound 60, 1,3,5-Trimethyl-2-amide-N-(benzofuran-5-yl)-4-(2-(N-methyl-1-carboxamide-3,3-difluorocyclobutane-1-amine)-oxalyl)-pyrrole] | > 100 | ≤ 0.05 | 
10 | COCC1(NC(=O)C(=O)c2c(C)c(C(=O)Nc3ccc4occc4c3)n(C)c2C)COC1 [Compound 62, 1,3,5-trimethyl-2-amide-N-(benzofuran-5-yl)-4-(2-(3-methoxymethyl-3-oxetan)(amino)-oxalyl)-pyrrole] | > 100 | ≤ 0.05 | 
11 | C#CCNC(=O)C(=O)c1c(C)c(C(=O)Nc2ccc3sccc3c2)n(C)c1C [Compound 63, 1,3,5-Trimethyl-2-amide-N-(benzothiophen-5-yl)-4-(2-propargylamino-oxalyl)-pyrrole] | > 100 | 0.05 to 0.5 | 
12 | C#CCNC(=O)C(=O)c1c(C)c(C(=O)Nc2ccc3c(ccn3C)c2)n(C)c1C [Compound 64, 1,3,5-Trimethyl-2-amide-N-(1-methyl-1H-indol-5-yl)-4-(2-propargylamino-oxalyl)-pyrrole] | > 100 | 0.5 to 5 | 
13 | C#CCNC(=O)C(=O)c1c(C)c(C(=O)Nc2ccc3ccccc3c2)n(C)c1C [Compound 66, 1,3,5-Trimethyl-2-amide-N-(naphthalen-2-yl)-4-(2-propargylamino-oxalyl)-pyrrole] | > 100 | 0.05 to 0.5 | 
14 | C#CCNC(=O)C(=O)c1c(C)c(C(=O)Nc2ccc3nccnc3c2)n(C)c1C [Compound 67, 1,3,5-Trimethyl-2-amide-N-(quinoxalin-6-yl)-4-(2-propargylamino-oxalyl)-pyrrole] | > 100 | 0.5 to 5 | 
15 | C#CCNC(=O)C(=O)c1c(C)c(C(=O)Nc2ccc3ncccc3c2)n(C)c1C [Compound 68, 1,3,5-Trimethyl-2-amide-N-(quinolin-6-yl)-4-(2-propargylamino-oxalyl)-pyrrole] | > 100 | 0.5 to 5 | 
16 | C#CCNC(=O)C(=O)c1c(C)c(C(=O)Nc2ccc3c(c2)CCO3)n(C)c1C [Compound 69, 1,3,5-Trimethyl-2-amide-N-(2,3-dihydrobenzofuran-5-yl)-4-(2-propargylamino-oxalyl)-pyrrole] | > 100 | 0.05 to 0.5 | 
17 | C#CCNC(=O)C(=O)c1c(C)c(C(=O)Nc2ccc3scnc3c2)n(C)c1C [Compound 70, 1,3,5-Trimethyl-2-amide-N-(benzothiazol-5-yl)-4-(2-propargylamino-oxalyl)-pyrrole] | > 100 | 0.5 to 5 | 
18 | C#CCNC(=O)C(=O)c1c(C)c(C(=O)Nc2ccc3c(c2)ncn3C)n(C)c1C [Compound 72, 1,3,5-Trimethyl-2-amide-N-(1-methyl-1H-benzimidazol-5-yl)-4-(2-propargylamino-oxalyl)-Pyrrole] | > 100 | 0.5 to 5 | 
19 | C#CCNC(=O)C(=O)c1c(C)c(C(=O)Nc2ccc3c(cnn3C)c2)n(C)c1C [Compound 73, 1,3,5-trimethyl-2-amide-N-(1-methyl-1H-indazol-5-yl)-4-(2-propargylamino-oxalyl)-pyrrole] | > 100 | 0.5 to 5 | 
20 | C#CCNC(=O)C(=O)c1c(C)c(C(=O)Nc2ccc3oncc3c2)n(C)c1C [Compound 74, 1,3,5-Trimethyl-2-amide-N-(benzisoxazol-5-yl)-4-(2-propargylamino-oxalyl)-pyrrole] | > 100 | 0.5 to 5 | 
21 | Cc1c(C(=O)C(=O)NC2(c3c[nH]nn3)CC(F)(F)C2)c(C)n(C)c1C(=O)Nc1ccc2occc2c1 [Compound 77, 1,3,5-trimethyl-2-amide-N-(benzofuran-5-yl)-4-(2-(3,3-difluoro-1-(1H-1,2,3-Triazol-4-yl)cyclobutane-1-amino)-oxalyl)-pyrrole] | > 100 | ≤ 0.05 | 
22 | Cc1c(C(=O)C(=O)NC(C)(C)c2c[nH]nn2)c(C)n(C)c1C(=O)Nc1ccc2occc2c1 [Compound 78, 1,3,5-trimethyl-2-amide-N-(benzofuran-5-yl)-4-(2-(2-(1H-1,2,3-triazole-4-yl)-2-propylamino)-oxalyl)-pyrrole] | > 100 | ≤ 0.05 | 
23 | C#CC(C)(C)NC(=O)C(=O)c1c(C)c(C(=O)Nc2ccc(F)c(F)c2)n(S(C)(=O)=O)c1C [Compound 81, 1-Methylsulfo-2-amide-N-(3,4-difluorophenyl)-3,5-dimethyl-4-(2-(1,1-dimethylpropynamine)-oxalyl)pyrrole] | > 100 | 0.05 to 0.5 | 
24 | Cc1c(C(=O)C(=O)NC(C)(C)C)coc1C(=O)Nc1ccc(F)c(Cl)c1 [Compound 83, 2-Amide-N-(3-chloro-4-fluoro-phenyl)-3-methyl-4-(2-tert-butylamino-oxalyl)-furan] | > 100 | > 50 | 
25 | Cc1c(C(=O)C(=O)NC(C)(C)C)csc1C(=O)Nc1ccc(F)c(Cl)c1 [Compound 85, 2-Amide-N-(3-chloro-4-fluoro-phenyl)-3-methyl-4-(2-tert-butylamino-oxalyl)-thiophene] | 96 | 0.5 to 5 | 
